Data on six molecules can be found in ChEMBL document CHEMBL5036327, “Systematic Optimization of Potent and Orally Bioavailable Purine Scaffold as a Dual Inhibitor of Toll-Like Receptors 7 and 9” (J Med Chem, 2021).

SMILES strings stand for the structures. Converted amounts (≈) assume the structure as drawn. A value given as a limit tells only on which side of the number the result lay.

The nature of data set [1]: Metabolic stability in human liver microsomes assessed as compound remaining incubated for 60 mins by LC-MS/MS analysis.
Data set [2] is described as follows: Apparent permeability across apical to basolateral side in human Caco2 cells at 10 uM measured after 10 mins by LC-MS/MS analysis. Particulars: Caco-2. A general note: Caco-2 cells form a polarised layer with tight junctions and transporters.
Data set [3] is described as follows: Apparent permeability across basolateral to apical side in human Caco2 cells at 10 uM measured after 10 mins by LC-MS/MS analysis. Particulars: Caco-2.
Data set [4] is described as follows: Stability in mouse plasma measured after 2 hrs by LC-MS/MS analysis.
The next data set concerns the target T1, Toll-like receptor 9 (Homo sapiens, UniProt Q9NR96).
T1 sequence (Q9NR96 whole entry): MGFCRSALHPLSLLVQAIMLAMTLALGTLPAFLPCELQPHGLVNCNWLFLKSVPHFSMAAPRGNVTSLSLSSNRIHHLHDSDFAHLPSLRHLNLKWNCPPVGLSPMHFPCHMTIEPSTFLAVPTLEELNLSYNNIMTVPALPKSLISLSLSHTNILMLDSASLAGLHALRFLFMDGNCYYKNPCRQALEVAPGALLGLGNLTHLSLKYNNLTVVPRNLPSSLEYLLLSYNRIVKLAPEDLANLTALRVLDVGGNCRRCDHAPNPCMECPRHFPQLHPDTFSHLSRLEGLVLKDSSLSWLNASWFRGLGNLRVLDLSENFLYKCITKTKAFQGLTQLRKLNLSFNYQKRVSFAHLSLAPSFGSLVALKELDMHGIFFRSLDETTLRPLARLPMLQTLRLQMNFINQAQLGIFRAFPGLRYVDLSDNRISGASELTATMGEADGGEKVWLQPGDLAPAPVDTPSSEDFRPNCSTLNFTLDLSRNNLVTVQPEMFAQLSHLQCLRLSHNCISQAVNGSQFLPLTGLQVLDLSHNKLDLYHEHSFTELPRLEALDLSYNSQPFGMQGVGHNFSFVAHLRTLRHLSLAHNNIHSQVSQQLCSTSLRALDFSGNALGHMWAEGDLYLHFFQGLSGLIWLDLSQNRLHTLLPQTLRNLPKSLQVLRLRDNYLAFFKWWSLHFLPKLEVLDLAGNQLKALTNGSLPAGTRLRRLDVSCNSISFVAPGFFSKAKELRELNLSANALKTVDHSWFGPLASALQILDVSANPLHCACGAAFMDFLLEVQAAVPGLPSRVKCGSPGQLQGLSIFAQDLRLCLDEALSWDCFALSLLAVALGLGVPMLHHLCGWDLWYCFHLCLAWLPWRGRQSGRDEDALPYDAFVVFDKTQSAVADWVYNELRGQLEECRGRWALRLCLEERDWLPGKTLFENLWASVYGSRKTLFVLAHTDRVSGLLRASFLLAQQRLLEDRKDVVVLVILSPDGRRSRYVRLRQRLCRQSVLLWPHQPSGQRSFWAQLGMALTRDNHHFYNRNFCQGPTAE
The data set can be described thus: Antagonist activity at human TLR9 expressed in […] cells assessed as inhibition of CpGB-induced NFkappaB activation measured after overnight incubation by SEAP-based spectrophotometry assay. Format: cell-based, HEK293.

The nature of data set [5]: Metabolic stability in human liver microsomes assessed as intrinsic clearance incubated for 60 mins by LC-MS/MS analysis. Background: Liver microsomes are vesicles of endoplasmic reticulum, rich in cytochrome P450 enzymes.
A short description of data set [6]: Efflux ratio of apparent permeability across apical to basolateral over basolateral to apical side in human Caco2 cells measured after 10 mins by LC-MS/MS analysis. As to conditions: Caco-2.
Another data set concerns the target T2, Toll-like receptor 7 (Homo sapiens, UniProt Q9NYK1).
T2 sequence (Q9NYK1 whole entry): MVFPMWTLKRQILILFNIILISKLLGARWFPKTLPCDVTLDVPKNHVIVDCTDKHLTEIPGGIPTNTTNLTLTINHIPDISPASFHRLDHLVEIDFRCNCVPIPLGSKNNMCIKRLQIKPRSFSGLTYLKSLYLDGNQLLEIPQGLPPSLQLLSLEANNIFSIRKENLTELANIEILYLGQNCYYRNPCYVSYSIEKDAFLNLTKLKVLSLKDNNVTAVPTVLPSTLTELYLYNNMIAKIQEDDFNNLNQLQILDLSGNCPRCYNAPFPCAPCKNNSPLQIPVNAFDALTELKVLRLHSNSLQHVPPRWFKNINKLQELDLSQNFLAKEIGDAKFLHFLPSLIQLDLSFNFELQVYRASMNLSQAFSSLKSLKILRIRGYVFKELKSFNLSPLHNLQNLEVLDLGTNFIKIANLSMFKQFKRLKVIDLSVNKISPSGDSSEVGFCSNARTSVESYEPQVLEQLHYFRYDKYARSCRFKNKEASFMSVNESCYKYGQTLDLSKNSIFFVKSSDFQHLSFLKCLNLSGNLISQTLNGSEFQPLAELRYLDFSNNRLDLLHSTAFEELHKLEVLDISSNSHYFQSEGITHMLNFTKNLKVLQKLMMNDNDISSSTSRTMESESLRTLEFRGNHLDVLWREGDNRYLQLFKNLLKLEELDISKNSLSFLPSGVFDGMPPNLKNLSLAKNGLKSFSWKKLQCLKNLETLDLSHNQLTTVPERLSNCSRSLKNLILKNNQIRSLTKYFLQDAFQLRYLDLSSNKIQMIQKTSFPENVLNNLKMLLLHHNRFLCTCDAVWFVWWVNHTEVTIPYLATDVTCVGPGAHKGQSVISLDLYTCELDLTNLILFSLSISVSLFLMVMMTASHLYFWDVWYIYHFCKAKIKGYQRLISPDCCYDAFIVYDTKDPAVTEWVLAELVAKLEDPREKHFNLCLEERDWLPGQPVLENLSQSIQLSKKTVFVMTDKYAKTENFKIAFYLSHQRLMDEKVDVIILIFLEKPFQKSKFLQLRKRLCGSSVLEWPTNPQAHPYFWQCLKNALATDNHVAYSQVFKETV
The data set can be described thus: Antagonist activity at human TLR7 expressed in HEK-blue-HTLR7 cells assessed as inhibition of CL264-induced NFkappaB activation measured after overnight incubation by SEAP-based spectrophotometry assay.

A short description of data set [7]: Stability in human plasma measured after 2 hrs by LC-MS/MS analysis.
Data set [8] can be described thus: Metabolic stability in mouse liver microsomes assessed as intrinsic clearance incubated for 60 mins by LC-MS/MS analysis.
Data set [9] can be described thus: Metabolic stability in mouse liver microsomes assessed as hepatic extraction ratio incubated for 60 mins by LC-MS/MS analysis.
The nature of data set [10]: metabolic stability in human liver microsomes assessed as hepatic extraction ratio incubated for 60 mins by LC-MS/MS analysis.
A further data set can be described thus: physchem. Particulars: buffer, pH 7.4.
A short description of data set [11]: Metabolic stability in human liver microsomes assessed as half life incubated for 60 mins by LC-MS/MS analysis.
The target in a further data set is T3, Toll-like receptor 8 (Homo sapiens, UniProt Q9NR97).
T3 sequence (Q9NR97 whole entry): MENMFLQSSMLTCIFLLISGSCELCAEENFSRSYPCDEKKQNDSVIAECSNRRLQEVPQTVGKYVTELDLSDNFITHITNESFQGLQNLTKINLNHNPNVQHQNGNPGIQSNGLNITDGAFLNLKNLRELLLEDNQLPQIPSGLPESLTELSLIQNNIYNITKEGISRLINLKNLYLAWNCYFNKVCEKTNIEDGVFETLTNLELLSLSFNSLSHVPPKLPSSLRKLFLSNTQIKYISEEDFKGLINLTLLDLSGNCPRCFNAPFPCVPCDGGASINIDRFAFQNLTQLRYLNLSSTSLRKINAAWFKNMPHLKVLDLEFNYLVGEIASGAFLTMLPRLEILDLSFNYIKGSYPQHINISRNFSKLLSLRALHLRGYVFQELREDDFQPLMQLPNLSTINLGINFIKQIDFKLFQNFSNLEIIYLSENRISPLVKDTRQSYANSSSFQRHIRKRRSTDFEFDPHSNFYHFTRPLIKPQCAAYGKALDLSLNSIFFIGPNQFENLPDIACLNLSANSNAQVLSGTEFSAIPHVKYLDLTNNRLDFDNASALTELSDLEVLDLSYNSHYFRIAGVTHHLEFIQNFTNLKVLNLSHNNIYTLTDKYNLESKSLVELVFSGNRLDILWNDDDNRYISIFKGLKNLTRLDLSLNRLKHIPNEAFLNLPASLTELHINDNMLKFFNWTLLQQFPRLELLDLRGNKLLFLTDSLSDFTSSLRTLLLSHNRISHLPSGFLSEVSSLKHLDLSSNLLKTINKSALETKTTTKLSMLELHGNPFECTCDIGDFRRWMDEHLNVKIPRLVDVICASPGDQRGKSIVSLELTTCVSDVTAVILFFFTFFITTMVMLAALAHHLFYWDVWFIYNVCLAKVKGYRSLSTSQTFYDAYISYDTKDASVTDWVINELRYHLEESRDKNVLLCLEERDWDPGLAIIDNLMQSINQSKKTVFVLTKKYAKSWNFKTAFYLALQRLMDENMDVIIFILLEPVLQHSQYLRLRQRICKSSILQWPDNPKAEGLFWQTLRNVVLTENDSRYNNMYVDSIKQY
The data set can be described thus: Antagonist activity at human TLR8 expressed in […] cells assessed as inhibition of CL075-induced NFkappaB activation measured after overnight incubation by SEAP-based spectrophotometry assay. The data set is classed as cell-based, HEK293.

Description for physchem: Aqueous solubility of compound at pH 7.4 measured after 18 hrs by UV-spectrometry

`CCN1CCN(CCCn2cnc3c(N4CCN(CC)CC4)ncnc32)CC1`: the share remaining (usually the share of the starting amount still present when the sample was taken) at 1 h in [1] came to 75.8%. Also, the Papp A→B (as a rule, how fast a substance crosses the layer from the apical side) at 10 min, 10 µM in data set [2] came to 3.57 ×10⁻⁶ cm/s. Also, the Papp B→A (as a rule, how fast a substance crosses the layer from the basolateral side) at 10 min, 10 µM in [3] was determined as 9.28 ×10⁻⁶ cm/s. In data set [4], this molecule had a fraction remaining at 2 h of 99%. The IC50 (commonly the concentration that inhibits the measured activity by half) at Toll-like receptor 9 is 1.19 µM; at Toll-like receptor 7, 4.78 µM. In addition, the microsomal CLint (in general, a measure of how fast metabolising enzymes remove a compound, apart from limits set by blood flow) at 1 h in data set [5] came out at 7.81 µL/min/mg. Also, the efflux ratio (commonly the permeability from basolateral to apical divided by that in the opposite direction, in the common usage) at 10 min in data set [6] is 2.6.

In the case of `Fc1ccc(CNc2nc(N3CCN(C4CCCC4)CC3)c3ncn(CCCN4CCCC4)c3n2)cc1`, the share remaining at 2 h in [7] worked out at 75%; in [4], 20%. Moreover, in data set [1], the fraction remaining at 1 h came to 2.9%. In addition, in [2], the Papp A→B at 10 min, 10 µM was determined as 32.7 ×10⁻⁶ cm/s. Besides, in [3], the apparent permeability from basolateral to apical (Papp B→A) at 10 min, 10 µM came to 62 ×10⁻⁶ cm/s. Further, the microsomal CLint at 1 h in [8] was 23.1 µL/min/mg; in data set [5] it was 38.8 µL/min/mg. Besides, the hepatic extraction ratio at 1 h in [9] was determined as 0.385; in [10] it was 0.642. In data set [6], the efflux ratio at 10 min was determined as 1.9. Moreover, in the data set “physchem”, the solubility (in general, the dissolved amount per volume that the medium holds) at 18 h was 28 µg/mL (≈ 55.3 µM). Besides, the half-life (commonly the time needed for the level to fall by half in the phase considered) at 1 h in data set [11] amounted to 0.298 h. Further, the IC50 was above 30 µM at Toll-like receptor 8 and 13.6 µM at Toll-like receptor 7.

For the molecule `CCN1CCN(c2nc(NCc3ccc(F)cc3)nc3c2ncn3CCCN2CCCC2)CC1`, the IC50 is 0.04 µM on Toll-like receptor 9 and above 30 µM at Toll-like receptor 8.

Regarding `CCN1CCN(CCCn2cnc3c(N4CCN(C5CCCC5)CC4)nc(NC(=O)c4ccc(CN(C)C)cc4)nc32)CC1`, the half-maximal inhibitory concentration (IC50) at Toll-like receptor 9 is 0.06 µM; on Toll-like receptor 8 it was above 30 µM.

On to `CCN1CCN(c2nc(NCc3ccc(OC)cc3)nc3c2ncn3CCCN2CCCC2)CC1`, for which the IC50 at Toll-like receptor 8 was above 30 µM.

In the case of `CCN1CCN(c2nc(NCc3ccc(CN(C)C)cc3)nc3c2ncn3CCCN2CCCC2)CC1`, the amount remaining at 2 h worked out at 58% in data set [7] and 22% in data set [4]. Also, the amount remaining at 1 h in [1] stood at 50.7%. For the same molecule, the apical-to-basolateral permeability (Papp A→B) at 10 min, 10 µM in [2] was 92.2 ×10⁻⁶ cm/s. The Papp B→A at 10 min, 10 µM in data set [3] was determined as 61.2 ×10⁻⁶ cm/s. Besides, the intrinsic clearance (microsomal CLint) at 1 h in data set [8] was found to be 4.74 µL/min/mg; in data set [5] it was 7.1 µL/min/mg. Further, the IC50 on Toll-like receptor 9 was 0.09 µM; on Toll-like receptor 7, 17.8 µM. The hepatic extraction ratio at 1 h in [9] stood at 0.114; in data set [10], 0.241. Also, in data set [6], the efflux ratio at 10 min came out at 0.7. In “physchem”, the concentration in solution (solubility at 18 h) came to 136 µg/mL (≈ 269 µM). Moreover, the half-life at 1 h in data set [11] stood at 1.87 h.
